Test [1] deals with E. faecalis (29212). The test can be described thus: MIC assay (Table 1). The following applies: Enterococcus faecalis, isolate 29212. The class given is cell-based. As for the experimental part: (§1) The compounds are screened for antimicrobial activity against a number of clinically relevant pathogens. Minimum Inhibitory Concentrations (MIC) of each of the compounds are determined using standard procedures for clinical ocular isolates of Ciprofloxacin Susceptible (CS) S. aureus (CSSA), Ciprofloxacin Resistant (CR) S. aureus (CRSA), CS S. epidermidis (CSSE), CR S. epidermidis (CRSE), St. pneumoniae (SP), St. viridans group (SV), Moraxella Species (MS) (including Moraxella catarrhalis), H. influenzae (HI), P. aeruginosa (PA), Serratia marcescens (SM), S. aureus fluoroquinolone-susceptible, S. aureus fluoroquinolone-resistant, S. epidermidis (Coagulase-negative Staphylococcus) fluoroquinolone-susceptible, S. epidermidis (Coagulase-negative Staphylococcus) fluoroquinolone-resistant, and Serratia marcescens.
(§2) On the day of testing, a 640 μg/m (1280 μg/m for Serratia marcescens and Pseudomonas aeruginosa) concentration is prepared from a 1% stock solution in 0.01% acetic acid, 0.2% BSA in polypropylene tubes.
(§3) Ten μl of diluted 10× test agents is added to each well of one row of the 96 well polypropylene plates from column 2 to column 12 (column 1 is a control for bacteria alone, with no peptide). […] The same peptide is in each of the 8 rows. One plate contains dilutions of one test agent and 8 bacterial isolates.
(§4) Ninety μl of the bacterial suspensions is dispensed in each well from column 1 to column 12. Each bacterial isolate is placed in one row of a 96 well polypropylene plate containing the test agents. The plates are placed on shaker at 15 minutes at room temperature, and then incubated at 37° C. overnight. MICs are determined visually as the lowest concentration of drug that inhibits visible bacterial growth.
(§5) Data is expressed as MIC50 in μg/ml. The bacterial isolates were as follows: E. coli (25922); S. aureus (27660); E. faecalis (29212); P. aeruginosa (10145); and K. pneumoniae (13883).

In test [2] the test system is K. pneumoniae (13883). Put plainly: MIC assay (Table 1). The class given is cell-based. The following applies: Klebsiella pneumoniae, isolate 13883, read-out: MIC50 K. Pnuemnoiae. Here is the method: as §1, §2, §3, §4, §5
The subject of test [3] is primary murine bone marrow-derived macrophages (BMDMs). Put plainly: Cytokine and chemokine production in BMDM cells. The format is cell-based, mouse. From the text:
The specific self-agonistic effect of Compound 116 along with its elevated agonistic effect with LPS stimulation in RAW 264.7 cells prompted evaluation of Compound 116 activity in primary murine bone marrow-derived macrophages (BMDMs). […] This observation is very similar to the immunomodulatory effect of Compound 116 in RAW 264.7 cells.
It was previously reported that the protective activity of a synthetic cationic peptide against bacterial infection was associated with the induction of chemokines such as CXCL1 from macrophages and/or monocytes. Thus, the ability of this nontoxic, nonpeptidic, antimicrobial compound to modulate both cytokine and chemokine production is encouraging for the design of synthetic molecules with multiple biological functions.

Structures are written as SMILES. Converted amounts (≈) assume the structure as drawn.

A word on the MIC50: it is the lowest concentration that inhibits either 50% of growth or 50% of the strains tested, depending on the study.

On to `NCCCOc1cc(-c2ccc3ccc(-c4cc(OCCCN)c(OCCCN)c(OCCCN)c4)cc3c2)cc(OCCCN)c1OCCCN` [Compound 116], for which the MIC50 in test [1] and in test [2] was 25 µg/mL (≈ 34.8 µM) each time. Moreover, the “LPS-induced TNF production” value in test [3] (5.0 μg/mL preincubation 1 hour, LPS 100 ng/mL 15 hours, FIG. 3A) is on record as “significantly increased”. Further, the “LPS-induced IL-10 production” value in test [3] (5.0 μg/mL preincubation 1 hour, LPS 100 ng/mL 15 hours, FIG. 3B) is given as “inhibited”. For the same compound, in test [3] (5.0 μg/mL, in the absence of LPS, FIG. 3A), the TNF production was 30 pg/mL. The “murine KC (chemokine CXCL1) levels” value in test [3] (5.0 μg/mL, relative to the DMSO control, FIG. 3C) is reported as “significantly higher levels”.

The values above are taken from patent US9469616B2, “Cyclic compounds and methods of making and using the same” (Cellceutix Corporation, priority 2011, dated 2016).
